In patent US5733559A, “Controlled release inclusion system of glycolic acid in β-cyclo-dextrin and process for the above system preparation” (priority 1995, dated 1998):
“And” between values parts separate entries of the source, which are not always exact repeats. Identical values can stand only once.

How the values were obtained:
[1] = tested on: skin of the face (periocular and zygomatic zone); assay: Non occlusive application: cutaneous tolerability test on the face
Experimental: For the second series of tests cutaneous irritation was determined following non-occlusive applications.
Non occlusive application
(§1) Free glycolic acid 70% (AG)--Du Pont
Eight healthy volumary women were chosen, aged between 30 and 50 (average age 37,5).
The samples were applied on one half of the face (periocular and zygomatic zone) using a badger brush. The duration of the application was decided according to the type of skin and to the cutaneous reaction of the individual volunteer. 5 applications were carried out, one every three or more days according to the subjects.
The irritating effect was assessed before the application and one hour after the application.
The parameters considered to clinically evaluate the irritating degree of the substance under examination were the following:
irritative symptoms: erythema, pruritus, burning, desquamation, blistering, eczematous reaction.
The irritating effect was assessed on the basis of an arbitrary scale, based on clinical experience, recorded as follows:
1=Modest reaction (slight reddening, pruritus)
2=Irritative reaction (erythema, pruritus, desquamation)
3=Strong irritative reaction (erythema, burning, strong pruritus, desquamation, and more)
After every application the cutaneous reactions of each volunteer were evaluated and a relative score was given.

[2] = tested on: cutaneous area (volar surfaces of the forearm); assay: Patch test (epicutaneous test): cutaneous irritation by occlusive application, average index of cutaneous irritation (IIM)
Source text: The first series of tests consisted in the test of cutaneous irritation or epicutaneous test (Patch Test) by means of occlusive application.
as §1
Ten healthy subjects were selected, of both sex, with negative anamnesis for allergic dermatitis by contact (DAC) and without any other pathology in process during the execution of the Test.
The ready to use plasters for dermoreactions used for the Patch Test were made of white "non woven fabric" with a dermatophilic mass of acrylic adhesive, in the shape of 1 cm diameter disc, covered by small squares of polyethylene.
The test was performed as follows: after cleansing with 70% alcoholic solution (denatured ethyl alcohol the cutaneous area to be treated (volar surfaces of the forearm), occlusive applications of the substance under examination were carried out for one hour. After that period, the plasters were removed and 15 minutes later the cutaneous reaction was evaluated and classified on the basis of an arbitrary scale.
The cutaneous reactions considered were:
According to the arbitrary scale used for the classification of the cutaneous reactions, 0 corresponds to the absence of reaction, 1 point to a light degree, 2 points to a moderate degree of reaction and 3 points to a reaction of serious gravity.
For each volunteer scores were recorded for each parameter and the mean value was calculated. […]

[3] = application time 3 min, 50% concentration, pH 2,5, right side of face, one value per subject

SMILES: O=C(O)CO [AG, glycolic acid]
- case of average to serious irritation after the second application, requiring suspension of the treatment ([1]; 8 subjects, right side periocular and zygomatic area): one
- irritation score (arbitrary scale 0-3), 1st application ([1]; application time 1 min, 50% concentration, pH 2,5, AG right side, CCAG left side of face, one value per subject): 0
- irritation score (arbitrary scale 0-3), 2nd application ([1]; application time 2 min, 50% concentration, pH 2,5, AG right side, CCAG left side of face, one value per subject): 2/3 and 0
- irritation score (arbitrary scale 0-3), 3rd application ([1]; application time 3 min, 50% concentration, pH 2,5, AG right side, CCAG left side of face, one value per subject): 2 and 0
- irritation score (arbitrary scale 0-3), 4th application, AG [1, 3]: 0
- irritation score (arbitrary scale 0-3), 5th application, AG [1, 3]: 0
- cases of irritation of average gravity after the third application ([1]; in vivo): 2 cases
- cases of irritation of grade 2 and 2/3 ([1]; in vivo): 3 cases
- irritation because of which subject 1 had to suspend treatment ([1]; subject 1, second application): average to serious irritation
- average index of cutaneous irritation of AG compared to that of CCAG ([2]; 10% concentration): significantly and appreciably higher
- average index of cutaneous irritation of free glycolic acid compared to that of glycolic acid complexed with cyclodextrins ([2]; at comparable concentrations (5%)): slightly higher
